Reference: article PMC9944328 (Nature Communications, 2023)

Tested on: SSTR2 mutants
Assay: SSTRs Gi-mediated cAMP inhibition, GloSensor, HEK293, 5 μM forskolin, 15 min room temperature (SSTR2 mutants)
Assay type: cell-based, human
Details: for Fold of WT: Gi signaling EC50
Description: The levels of the intracellular 3′, 5′-cyclic AMP (cAMP) were measured by the GloSensor cAMP assay (Promega) as described in the previous studies[28],[41] which has been widely used. The human full-length SSTRs and mutants were cloned into the pcDNA3.1+ vector with a HA signal sequence followed by a Flag tag at the N-terminus. HEK293 cells (ATCC, CRL-1573) were seeded into 6-well microplates at a density of 1.0 × 10^6 cells/well and cultured for 24 h at 37 °C with 5% CO2. Cells were then co-transfected with SSTR wild-type or mutants and GloSensor plasmids. After 24 h of transfection, the cells were dissociated with TrypLE™ Express Enzyme (1X) (Thermo Fisher Scientific) and collected by centrifugation at 500 × g for 5 min. Then the collected cells were suspended in Hank’s balanced salt solution [HBSS (Thermo Fisher Scientific)] supplemented with […] (YEASEN), and then the suspension cells were seeded into 96-well plates with 90 μl/well. After incubating at room temperature for 40 min, 5 μM forskolin and ligands diluted in HBSS were added to each well and the plates were incubated at room temperature for 15 min. […] were measured using the Synergy H1 microplate reader (BioTek) and the data presented are means of at least three independent experiments.

[1] = Gi signaling, SSTR2 D295(7.36)A, n=3
[2] = Gi signaling, SSTR2 F127(3.37)A, n=3
[3] = Gi signaling, SSTR2 F208(5.38)A, n=3
[4] = Gi signaling, SSTR2 F265(6.44)A, n=3
[5] = Gi signaling, SSTR2 F294(7.35)A, n=3
[6] = Gi signaling, SSTR2 I130(3.40)A, n=3
[7] = Gi signaling, SSTR2 I195(45.52)A, n=3
[8] = Gi signaling, SSTR2 I284ECL3A, n=3
[9] = Gi signaling, SSTR2 K291(7.32)A, n=3
[10] = Gi signaling, SSTR2 L99(2.60)A, n=3
[11] = Gi signaling, SSTR2 N276(6.55)A, n=3
[12] = Gi signaling, SSTR2 P220(5.50)A, n=3
[13] = Gi signaling, SSTR2 Q102(2.63)A, n=3
[14] = Gi signaling, SSTR2 T194(45.51)A, n=3
[15] = Gi signaling, SSTR2 V103(2.64)A, n=3
[16] = Gi signaling, SSTR2 W269(6.48)A, n=3
[17] = Gi signaling, SSTR2 Y50(1.39)A, n=3
[18] = Gi signaling, SSTR2 Y205(5.35)A, n=3
[19] = Gi signaling, SSTR2 Y302(7.43)A, n=3

N#Cc1cccc(-c2ccc3ncc(-c4cc(F)cc(F)c4)c(N4CCC(N)CC4)c3c2)c1O [paltusotine]
Fold of WT (SSTR2 Y50(1.39)A): 1.90
Fold of WT (SSTR2 Y205(5.35)A): 0.26
Fold of WT (SSTR2 Y302(7.43)A): 6.27
EC50 [1]: 2.46 ± 1.67 nM
Emax [1]: 107.80±3.11 %WT
EC50 [2]: 1.02 ± 1.29 nM
Emax [2]: 107.70±2.32 %WT
EC50 [3]: 64.2 ± 2.53 nM
Emax [3]: 91.78±2.89 %WT
EC50 [4]: 11.9 ± 1.45 nM
Emax [4]: 113.70±4.57 %WT
EC50 (Gi signaling, SSTR2 F272A, n=3): 63.1 ± 4.1 nM
Emax (Gi signaling, SSTR2 F272A, n=3): 57.21±2.64 %WT
EC50 [5]: 2.64 ± 1.26 nM
Emax [5]: 100.30±10.53 %WT
EC50 [6]: 19 ± 2.64 nM
Emax [6]: 116.50±4.76 %WT
EC50 [7]: 83.4 ± 1.65 nM
Emax [7]: 106.20±8.71 %WT
EC50 [8]: 1.22 nM
Emax [8]: 113.80±5.04 %WT
EC50 [9]: 5.22 ± 8.67 nM
Emax [9]: 97.49±6.65 %WT
EC50 [10]: 17.1 ± 5.16 nM
Emax [10]: 107.80±2.34 %WT
EC50 [11]: 1.65 ± 3.51 nM
Emax [11]: 89.08±4.63 %WT
EC50 [12]: 3.22 ± 1.38 nM
Emax [12]: 116.00±5.23 %WT
EC50 [13]: 31 ± 6.59 nM
Emax [13]: 97.26±5.45 %WT
EC50 [14]: 97.7 ± 2.2 nM
Emax [14]: 85.51±3.13 %WT
EC50 [15]: 33 ± 2.87 nM
Emax [15]: 87.33±6.38 %WT
EC50 [16]: 0.44 nM
Emax [16]: 98.94±12.38 %WT
EC50 [17]: 3.6 ± 6.86 nM
Emax [17]: 106.10±0.90 %WT
EC50 [18]: 0.48 nM
Emax [18]: 98.71±2.78 %WT
EC50 [19]: 11.8 ± 3.12 nM
Emax [19]: 55.80±2.34 %WT
EC50 (I195A, run 1, best-fit): 83.4 nM
LogEC50 (I195A, run 1, best-fit): -7.079
EC50 (I195A, run 2, best-fit): 112 nM
LogEC50 (I195A, run 2, best-fit): -6.952
EC50 (I195A, run 3, best-fit): 54.8 nM
LogEC50 (I195A, run 3, best-fit): -7.261
Bottom (best-fit) (I195M, run 1): 2.531
EC50 (I195M, run 1): 8.24 nM
LogEC50 (I195M, run 1): -8.084
Span (best-fit) (I195M, run 1): 94.08
Top (best-fit) (I195M, run 1): 96.61
Bottom (best-fit) (I195M, run 2): -2.367
EC50 (I195M, run 2): 4.64 nM
LogEC50 (I195M, run 2): -8.333
Span (best-fit) (I195M, run 2): 106.3
Top (best-fit) (I195M, run 2): 103.9
EC50 (I284A, run 1, best-fit): 1.25 nM
LogEC50 (I284A, run 1, best-fit): -8.902
EC50 (I284A, run 2, best-fit): 1.14 nM
LogEC50 (I284A, run 2, best-fit): -8.945
EC50 (I284A, run 3, best-fit): 1.28 nM
LogEC50 (I284A, run 3, best-fit): -8.894
Bottom (best-fit value), cAMP inhibition (K291A-1 (run 1)): 1.006
LogEC50 (best-fit value), cAMP inhibition (K291A-1 (run 1)): -8.362
Span (best-fit value), cAMP inhibition (K291A-1 (run 1)): 92.81
Top (best-fit value), cAMP inhibition (K291A-1 (run 1)): 93.82
Bottom (best-fit value), cAMP inhibition (K291A-2 (run 2)): -4.234
LogEC50 (best-fit value), cAMP inhibition (K291A-2 (run 2)): -8.83
Span (best-fit value), cAMP inhibition (K291A-2 (run 2)): 114.6
Top (best-fit value), cAMP inhibition (K291A-2 (run 2)): 110.4
Bottom (best-fit value), cAMP inhibition (K291A-3 (run 3)): -10.93
LogEC50 (best-fit value), cAMP inhibition (K291A-3 (run 3)): -8.158
Span (best-fit value), cAMP inhibition (K291A-3 (run 3)): 99.18
Top (best-fit value), cAMP inhibition (K291A-3 (run 3)): 88.26
EC50 (L99A, run 1, best-fit): 6.78 nM
LogEC50 (L99A, run 1, best-fit): -8.169
EC50 (L99A, run 2, best-fit): 22.1 nM
LogEC50 (L99A, run 2, best-fit): -7.655
EC50 (L99A, run 3, best-fit): 22.4 nM
LogEC50 (L99A, run 3, best-fit): -7.65
Bottom (best-fit value), cAMP inhibition (N276A-1 (run 1)): -4.414
LogEC50 (best-fit value), cAMP inhibition (N276A-1 (run 1)): -9.003
Span (best-fit value), cAMP inhibition (N276A-1 (run 1)): 102.7
Top (best-fit value), cAMP inhibition (N276A-1 (run 1)): 98.25
Bottom (best-fit value), cAMP inhibition (N276A-2 (run 2)): -3.382
LogEC50 (best-fit value), cAMP inhibition (N276A-2 (run 2)): -8.659
Span (best-fit value), cAMP inhibition (N276A-2 (run 2)): 88.97
Top (best-fit value), cAMP inhibition (N276A-2 (run 2)): 85.59
Bottom (best-fit value), cAMP inhibition (N276A-3 (run 3)): -1.142
LogEC50 (best-fit value), cAMP inhibition (N276A-3 (run 3)): -8.752
Span (best-fit value), cAMP inhibition (N276A-3 (run 3)): 84.55
Top (best-fit value), cAMP inhibition (N276A-3 (run 3)): 83.41
Bottom (best-fit value) (P220A-1 (run 1)): 6.519
LogEC50 (best-fit value) (P220A-1 (run 1)): -8.456
Span (best-fit value) (P220A-1 (run 1)): 112
Top (best-fit value) (P220A-1 (run 1)): 118.5
Bottom (best-fit value) (P220A-2 (run 2)): 4.552
LogEC50 (best-fit value) (P220A-2 (run 2)): -8.51
